The nature of series [1]: Cytotoxicity against human HuH7 cells by colorimetric proliferation assay. It counts as cell-based, Huh-7.
For another series, the system named is Hepatitis C virus. As to the kind of experiment: Antiviral activity against HCV genotype 1b infected in human HuH7 cells after 3 days by luciferase assay. The series is classed as functional, organism-based, Hepacivirus hominis. The conditions noted are these: Huh-7, 72 h.
The nature of series [2]: Inhibition of recombinant full length HCV genotype 1b NS3/4A protease by FRET assay. Further details: species or system Hepatitis C virus subtype 1b.
Series [3] can be described thus: Half life in rat liver microsomes. The series is classed as ADME. In general terms: Liver microsomes are a subcellular fraction often used to study metabolism.
Series [4] is described as follows: Intrinsic clearance in human liver microsomes. It counts as ADME. The settings on record: read-out: CLH.
Series [5] in a line: Intrinsic clearance in monkey liver microsomes. The series is classed as ADME, Macaca mulatta. The settings on record: rhesus monkey, read-out: CLH.
Series [6] is described as follows: Intrinsic clearance in rat liver microsomes. It counts as ADME. The settings on record: read-out: CLH.
Series [7] can be described thus: Intrinsic clearance in rat cryopreserved hepatocytes assessed per 10^6 cells. The settings on record: read-out: CLH. The series is classed as ADME, cell-based, Hepatocyte.

Results on 28 compounds are retold here after ChEMBL document CHEMBL3632591, “Discovery and structural diversity of the hepatitis C virus NS3/4A serine protease inhibitor series leading to clinical candidate IDX320” (Bioorg Med Chem Lett, 2015).

Broadly, the CC50 is the concentration at which the toxic effect on the cells reaches its halfway point. As a reminder, the EC50 is the midpoint of the concentration-response curve. Broadly, the IC50 is the concentration needed to halve the response being measured. In series [1], `C#Cc1csc(-c2cc(O[C@H]3C[C@H]4C(=O)N(C)CCCC/C=C/[C@@H]5C[C@@]5(C(=O)NS(=O)(=O)C5CC5)NC(=O)N4C3)c3ccc(OC)c(C)c3n2)n1` registered a CC50 of 14400 nM. Further, a half-maximal effect in the series with Hepatitis C virus (EC50) was put at 2.8 nM. Besides, the IC50 in series [2] is 0.9 nM.
Regarding `COc1ccc2c(O[C@H]3C[C@H]4C(=O)N(C)CCCC/C=C/[C@@H]5C[C@@]5(C(=O)NS(=O)(=O)C5(C)CC5)NC(=O)N4C3)cc(-c3csc(C(C)C)n3)nc2c1Cl`, the CC50 in series [1] is 30200 nM. In the series with Hepatitis C virus, this compound returned an EC50 of 32 nM. Further, the 50% inhibitory concentration (IC50) in series [2] was found to be 0.8 nM.
In series [1], `COc1ccc2c(O[C@H]3C[C@H]4C(=O)N(C)CCCC/C=C/[C@@H]5C[C@@]5(C(=O)NS(=O)(=O)C5(C)CC5)NC(=O)N4C3)cc(-c3nc(C#N)cs3)nc2c1Cl` came in with a half-maximal cytotoxic concentration (CC50) of 75000 nM. In the series with Hepatitis C virus, the EC50 came to 89 nM. The IC50 in series [2] turned out to be 10 nM.
Usually half-life stands for the time in which the quantity being followed falls by half. With `COc1ccc2c(OC[C@@H]3C[C@H]4C(=O)N(C)CCCC/C=C/[C@@H]5C[C@@]5(C(=O)NS(=O)(=O)C5(C)CC5)NC(=O)N34)cc(-c3nc(C(C)C)cs3)nc2c1Cl`, the half-life in series [3] worked out at 8 min. The results for the microsomal CLint in series [4], in series [5] and in series [6] were 472 µL/min/mg, 500 µL/min/mg and 182 µL/min/mg, respectively.
The compound `C=Cc1csc(-c2cc(O[C@H]3C[C@H]4C(=O)N(C)CCCC/C=C/[C@@H]5C[C@@]5(C(=O)NS(=O)(=O)C5(C)CC5)NC(=O)N4C3)c3ccc(OC)c(Cl)c3n2)n1` registered a half-maximal cytotoxic concentration (CC50) in series [1] of 57100 nM. Besides, the EC50 in the series on Hepatitis C virus was 4 nM. Further, the IC50 in series [2] was 0.8 nM.
The corresponding values for `COc1ccc2c(O[C@H]3C[C@H]4C(=O)N(C)CCCC/C=C/[C@@H]5C[C@@]5(C(=O)NS(=O)(=O)C5(C)CC5)NC(=O)N4C3)cc(-c3nc(C(C)C)cs3)nc2c1F` are 33500 nM, 538 nM and 3.5 nM.
`COc1ccc2c(O[C@H]3C[C@H]4C(=O)N(C)CCCC/C=C/[C@@H]5C[C@@]5(C(=O)NS(=O)(=O)C5(C)CC5)NC(=O)N4C3)cc(-c3nc(C(C)C)cs3)nc2c1Cl`: the CC50 in series [1] turned out to be 48500 nM. In series [3], the half-life stood at 143 min. Moreover, the values for the microsomal CLint in series [4], in series [5] and in series [6] were 18.5 µL/min/mg, 66.8 µL/min/mg and 9.7 µL/min/mg, respectively. The hepatocyte CLint in series [7] was determined as 11.2 µL/min/1e6 cells. This compound gave an EC50 in the series on Hepatitis C virus of 56 nM. In addition, in series [2], the IC50 came to 2.3 nM.
`C#Cc1csc(-c2cc(O[C@H]3C[C@H]4C(=O)N(C)CCCC/C=C/[C@@H]5C[C@@]5(C(=O)NS(=O)(=O)C5(C)CC5)NC(=O)N4C3)c3ccc(OC)c(Cl)c3n2)n1` showed a CC50 in series [1] of 17000 nM. Moreover, the midpoint of the response with Hepatitis C virus, the EC50, lay at 4 nM. Also, the concentration for half-maximal inhibition (IC50) in series [2] amounted to 0.5 nM.
The compound `COc1ccc2c(O[C@H]3C[C@H]4C(=O)N(C)CCCC/C=C/[C@@H]5C[C@@]5(C(=O)NS(=O)(=O)C5(C)CC5)NC(=O)N4C3)cc(-n3cc(C(C)C)cn3)nc2c1C` returned a CC50 in series [1] of 9610 nM. This compound also showed an EC50 with Hepatitis C virus of 65 nM. The IC50 in series [2] was found to be 0.9 nM.
For the compound `COc1ccc2c(O[C@H]3C[C@H]4C(=O)N(C)CCCC/C=C/[C@@H]5C[C@@]5(C(=O)NS(=O)(=O)C5CC5)NC(=O)N4C3)cc(-c3csc(C(F)(F)F)n3)nc2c1C`, in series [1], it took 75000 nM to reach half-maximal cytotoxicity (CC50). This compound also came in with a half-life in series [3] of 59 min. Further, the microsomal CLint in series [4] turned out to be 27.1 µL/min/mg; in series [5], 39.9 µL/min/mg; in series [6] it was 23.7 µL/min/mg. The hepatocyte CLint in series [7] turned out to be 30 µL/min/1e6 cells. For the same compound, in the series with Hepatitis C virus, a half-maximal effect (EC50) was put at 8 nM. In addition, the IC50 in series [2] stood at 0.9 nM.
In series [1], `COc1ccc2c(O[C@H]3CCN4C(=O)N(C)CCCC/C=C/[C@@H]5C[C@@]5(C(=O)NS(=O)(=O)C5CC5)NC(=O)[C@@H]4C3)cc(-c3nc(C(F)(F)F)cs3)nc2c1C` returned a CC50 of over 75000 nM. The compound further registered an EC50 with Hepatitis C virus of 0.9 nM. In series [2], the IC50 worked out at 0.4 nM.
Taken in the same sequence, the figures for `COc1ccc2c(O[C@H]3C[C@H]4C(=O)N(C)CCCC/C=C/[C@@H]5C[C@@]5(C(=O)NS(=O)(=O)C5(C)CC5)NC(=O)N4C3)cc(-c3nc(C4CCC4)cs3)nc2c1Cl` were 75000 nM, 29 nM and 1.3 nM.
As for `COc1ccc2c(OC[C@@H]3C[C@H]4C(=O)N(C)CCCC/C=C/[C@@H]5C[C@@]5(C(=O)NS(=O)(=O)C5(C)CC5)NC(=O)N34)cc(-c3nc(C(C)C)cs3)nc2c1C`, in series [3], the half-life was determined as 3.8 min. The microsomal CLint in series [4] was determined as 299 µL/min/mg; in series [5] it was 500 µL/min/mg; in series [6], 364 µL/min/mg.
In turn, `COc1ccc2c(O[C@H]3C[C@H]4C(=O)N(C)CCCC/C=C/[C@@H]5C[C@@]5(C(=O)NS(=O)(=O)C5(C)CC5)NC(=O)N4C3)cc(-c3nc(C(C)C)cs3)nc2c1C` displayed a CC50 in series [1] of over 75000 nM. The half-life in series [3] was determined as 112 min. Besides, the microsomal CLint turned out to be 9.8 µL/min/mg in series [4], 37.8 µL/min/mg in series [5] and 12.6 µL/min/mg in series [6]. Moreover, the hepatocyte CLint in series [7] turned out to be 12.3 µL/min/1e6 cells. This compound gave a concentration giving a half-maximal response (EC50) with Hepatitis C virus of 72 nM. Moreover, the IC50 in series [2] is 1.8 nM.
Regarding `COc1ccc2c(O[C@H]3C[C@H]4C(=O)N(C)CCCC/C=C/[C@@H]5C[C@@]5(C(=O)NS(=O)(=O)C5(C)CC5)NC(=O)N4C3)cc(-c3nc(C(C)C)cs3)nc2c1Br`, half-maximal cytotoxicity in series [1] (CC50) was put at 51200 nM. This compound showed a concentration giving a half-maximal response (EC50) in the series on Hepatitis C virus of 29 nM. In series [2], the 50% inhibitory concentration (IC50) came out at 0.5 nM.
In series [1], `COc1ccc2c(O[C@H]3C[C@H]4C(=O)N(C)CCCC/C=C/[C@@H]5C[C@@]5(C(=O)NS(=O)(=O)C5(C)CC5)NC(=O)N4C3)cc(-c3csc(C(F)(F)F)n3)nc2c1Cl` yielded a CC50 of 59000 nM. Moreover, the EC50 in the series on Hepatitis C virus was 19 nM. In addition, in series [2], the IC50 came to 1 nM.
The corresponding values for `C#Cc1csc(-c2cc(O[C@H]3C[C@H]4C(=O)N(C)CCCC/C=C/[C@@H]5C[C@@]5(C(=O)NS(=O)(=O)C5(C)CC5)NC(=O)N4C3)c3ccc(OC)c(C)c3n2)n1` are 75000 nM, 2.7 nM and 0.9 nM.
Regarding `COc1ccc2c(O[C@H]3C[C@H]4C(=O)N(C)CCCC/C=C/[C@@H]5C[C@@]5(C(=O)NS(=O)(=O)C5(C)CC5)NC(=O)N4C3)cc(C#N)nc2c1C`, in series [1], the midpoint of cytotoxicity, the CC50, lay at 55800 nM. The EC50 in the series on Hepatitis C virus was found to be 499 nM. The IC50 in series [2] is 6.4 nM.
As to `COc1ccc2c(O[C@H]3C[C@H]4C(=O)N(C)CCCC/C=C/[C@@H]5C[C@@]5(C(=O)NS(=O)(=O)C5(C)CC5)NC(=O)N4C3)cc(-c3cc(C(C)C)on3)nc2c1Cl`, in series [1], it took 75000 nM to reach half-maximal cytotoxicity (CC50). Besides, in the series on Hepatitis C virus, the EC50 worked out at 669 nM. In series [2], the IC50 is 3.7 nM.
The corresponding values for `COc1ccc2c(O[C@H]3C[C@H]4C(=O)N(C)CCCC/C=C/[C@@H]5C[C@@]5(C(=O)NS(=O)(=O)C5(C)CC5)NC(=O)N4C3)cc(-n3cc(C(C)C)nn3)nc2c1Cl` are 28500 nM, 593 nM and 7.3 nM.
`C#Cc1cccc(-c2cc(O[C@H]3C[C@H]4C(=O)N(C)CCCC/C=C/[C@@H]5C[C@@]5(C(=O)NS(=O)(=O)C5(C)CC5)NC(=O)N4C3)c3ccc(OC)c(C)c3n2)c1`: the CC50 in series [1] is 75000 nM. The same compound registered a concentration giving a half-maximal response (EC50) in the series on Hepatitis C virus of 85 nM. Besides, in series [2], the IC50 is 7 nM.
Consider `C#Cc1csc(-c2cc(O[C@H]3CCN4C(=O)N(C)CCCC/C=C/[C@@H]5C[C@@]5(C(=O)NS(=O)(=O)C5(C)CC5)NC(=O)[C@@H]4C3)c3ccc(OC)c(C)c3n2)n1`, for which the CC50 in series [1] was over 75000 nM. This compound gave an EC50 in the series with Hepatitis C virus of 0.2 nM. The IC50 in series [2] is 0.6 nM.
Taken in the same sequence, the figures for `COc1ccc2c(O[C@H]3C[C@H]4C(=O)N(C)CCCC/C=C/[C@@H]5C[C@@]5(C(=O)NS(=O)(=O)C5(C)CC5)NC(=O)N4C3)cc(-c3nc(C(C)C)cs3)nc2c1` were 42700 nM, 508 nM and 1.7 nM.
On to `COc1ccc2c(O[C@H]3C[C@H]4C(=O)N(C)CCCC/C=C/[C@@H]5C[C@@]5(C(=O)NS(=O)(=O)C5CC5)NC(=O)N4C3)cc(-c3nc(C)cs3)nc2c1Cl`, for which half-maximal cytotoxicity in series [1] (CC50) was put at 75000 nM. Further, the EC50 with Hepatitis C virus was determined as 22 nM. For the same compound, the IC50 in series [2] stood at 1 nM.
Taken in the same sequence, the figures for `COc1cc2c(O[C@H]3C[C@H]4C(=O)N(C)CCCC/C=C/[C@@H]5C[C@@]5(C(=O)NS(=O)(=O)C5(C)CC5)NC(=O)N4C3)cc(-c3nc(C(C)C)cs3)nc2cc1Cl` were over 75000 nM, 191 nM and 8.6 nM.
Taken in the same sequence, the figures for `COc1ccc2c(O[C@H]3C[C@H]4C(=O)N(C)CCCC/C=C/[C@@H]5C[C@@]5(C(=O)NS(=O)(=O)C5CC5)NC(=O)N4C3)cc(-c3nc(C4CC4)cs3)nc2c1Cl` were 31200 nM, 21 nM and 1 nM.
Taken in the same sequence, the figures for `COc1ccc2c(O[C@H]3C[C@H]4C(=O)N(C)CCCC/C=C/[C@@H]5C[C@@]5(C(=O)NS(=O)(=O)C5CC5)NC(=O)N4C3)cc(-c3noc(C)n3)nc2c1C` were 75000 nM, over 750 nM and 25.7 nM.
For `COc1ccc2c(O[C@H]3C[C@H]4C(=O)N(C)CCCC/C=C/[C@@H]5C[C@@]5(C(=O)NS(=O)(=O)C5(C)CC5)NC(=O)N4C3)cc(-n3cc(C(F)(F)F)cn3)nc2c1Cl`, the CC50 in series [1] was determined as 21900 nM. For the same compound, in the series with Hepatitis C virus, the EC50 is 27 nM. Besides, the IC50 in series [2] was found to be 0.4 nM.
